What is called MIC is the lowest concentration found to suppress growth. Low readings indicate a more susceptible organism, high ones a less susceptible organism.

Common to all, as to settings: 24 h
In experiment [1] the test system is Pseudomonas aeruginosa. It is filed as cell-based.
Description: The OD 600 nm of an overnight culture of Pseudomonas aeruginosa was determined and adjusted to 0.1 in Mueller–Hinton broth and, afterwards, diluted 1:4. […] After a 24 h incubation at 37 °C and a 5% CO2 atmosphere, OD 600 nm was determined using a Tecan microplate reader M infinite 200. All tests were performed in triplicate.
For experiment [2], the system named is C. albicans. The class given is cell-based, Candida albicans.
Description: (§1) The antifungal activity was determined according to the “Clinical and Laboratory Standards Institute” guidelines M27-A3 broth microdilution assay with modifications (turbidimetric detection) [29, 31]. Based on the cell density measurements, the minimal inhibitory concentration (MIC) was derived from a Lambert–Pearson plot [32].
The test system of experiment [3] is C. parapsilosis. The class given is cell-based, Candida parapsilosis.
Description: as §1
The subject of experiment [4] is C. auris. It is filed as cell-based, Candida auris.
Description: as §1
Experiment [5] deals with C. albicans biofilm. It is filed as cell-based, Candida albicans.
Description: (§2) Biofilms were basically formed and analyzed as described previously [31, 32, 33]. In brief, 2.5 × 10^3 yeast cells were seeded in 200 µL RPMI-1640 medium supplemented with L-glutamine in flat-bottomed, 96-well polystyrene microtiter plates (Sarstedt AG & Co. KG, Nümbrecht, Germany) and incubated at 37 °C without agitation for 24 h. The effect of the peptides on the biofilm formation was tested at different concentrations. […] Planktonic cells were removed with the supernatant, and the mature biofilms were washed twice with 200 µL water. Subsequently, the biofilms were stained with 200 µL of a 0.1% (w/v) crystal violet solution for 15 min. The supernatant was removed, and the biofilms were washed twice with 200 µL water to eliminate excess crystal violet. The stained biofilms were air dried for 24 h at 25 °C and finally destained using 200 µL of 30% acetic acid (15 min, 25 °C). The supernatant was transferred to a fresh 96-well plate, and the absorbance at 560 nm was measured using a Tecan infinite M200 microplate reader to quantify the biofilm biomass. The curve was fitted with a nonlinear regression with the dose-response nonlinear Hill equation.
Experiment [6] deals with C. parapsilosis biofilm. The class given is cell-based, Candida parapsilosis.
Description: as §2
The test system of experiment [7] is C. auris biofilm. It is filed as cell-based, Candida auris.
Description: as §2

Ends that are not written are not given here.

With KKKPTKK [Nv-p3], in experiment [1], the minimal inhibitory concentration (MIC) was >100 µg/mL. Also, the “Antifungal Activity MIC” value in experiment [2], in experiment [3] and in experiment [4] was “˃100 µg/mL” throughout. The “Antibiofilm Activity IC50” value in experiment [5] is on record as 57.5 µg/mL; in experiment [6] it was 84.4 µg/mL; in experiment [7] it was 57.5 µg/mL.

For the origin of these results see publication PMC9968088, “Identification and Characterization of Three New Antimicrobial Peptides from the Marine Mollusk Nerita versicolor (Gmelin, 1791)” (International Journal of Molecular Sciences, 2023).
